From patent US20240091358A1, “[…] REGULATION” (Senti Biosciences, Inc., priority 2021, published 2024) come the findings set out here.

Common to all, as to assay type: cell-based
The test system of data set [1] is Jurkat T cells. Put plainly: SEAP QuantiBlue assay in Jurkat T cells (Example 3). To be noted: supernatant, 1 μM lenalidomide vs no drug. The method, then:
The viral vector constructs were generated, as described above, using Secreted Alkaline Phosphatase (SEAP) fused to a degron (d913 super degron) with various linkers, including transmembrane domain containing linkers. The constructs examined are described in Table 10.
SEAP assays were performed using the QuantiBlue kit (Invivogen; rep-qb1). For experiments performed in Jurkat cells, the following protocol was followed: • On Day 1, cells were plated at 1e6 cells in 1 mL in a 24 well plate and 300 k GS units of virus was added • On Day 3, cells were split into 6 wells of a 48 well plate (1e5 cells in 0.5 mL) and drug was added to 3 of these wells (1 μM lenalidomide) • On Day 6, cells were pelleted and 20 uL supernatant from each well was harvested and incubated with 180 uL QuantiBlue (Invivogen) for 1 h at 37 deg, SEAP activity was read out on a plate reader at 655 nm

In data set [2] the test system is HEK293Ft cells. The experiment in a line: SEAP QuantiBlue assay of SEAP/degron constructs in HEK293Ft cells (Example 1). Particulars: 1 μM lenalidomide vs no drug.
Data set [3] concerns donor-derived T cells. Put plainly: SEAP QuantiBlue assay of SEAP/degron constructs in donor-derived T cells (Example 1). Particulars: 1 μM lenalidomide vs no drug. How it is done:
A series of pL17d-based viral vector constructs were generated using Secreted Alkaline Phosphatase (SEAP) fused to a degron (d913 super degron) using various linkers, as described in Table 6A with sequences listed in Table 6B. The d913 super degron is described in more detail in International Application Pub. No. WO2019/089592A1, herein incorporated by reference for all purposes.
(§1) SEAP assays were performed using the QuantiBlue kit (Invivogen; rep-qb1). […] The CliniMACS Prodigy utilizes a closed-system, single-use disposable kits for many different cell types. The automated program performs platelet washes, CD4+& CD8+ bead labeling, and positive selection over a magnet resulting in cell suspensions with high purity. Positively selected T cells were then sampled, analyzed for cell surface phenotype via flow cytometry and cryopreserved via a controlled rate freezer. • Cells were then thawed and activated on Day 0 (1e6 cells/mL in a 24 well plate were activated 3:1 with CD3/CD28 Dynabeads) • On Day 1, 100K GS units of virus were added to cells • On Day 2, fresh media was added to T cells • On Day 4, each well was split into 2 wells of 6 well plate with +/−1 μM lenalidomide • On Day 7, cells were pelleted and 20 uL supernatant from each well was harvested and incubated with 180 uL QuantiBlue (Invivogen) for 1 h at 37 deg, SEAP activity was read out on a plate reader at 655 nm

The subject of data set [4] is HEK293Ft cells. The experiment in a line: SEAP QuantiBlue assay of Membrane-Cleavable Degron constructs in HEK293Ft cells (Example 2). To be noted: 1 μM lenalidomide vs no drug.
Data set [5] deals with donor-derived T cells. The experiment in a line: SEAP QuantiBlue assay of Membrane-Cleavable Degron constructs in donor-derived T cells (Example 2). Particulars: supernatant, 1 μM lenalidomide vs no drug. How it is done: A series of pL17d-based viral vector constructs were generated using Secreted Alkaline Phosphatase (SEAP) fused to a degron (d913 super degron) using various linkers, including transmembrane domain containing linkers, as described in Table 8A with sequences listed in Table 8B.
as §1, with “into 6” for “into 2”, “of 48” for “of 6”, “lenalidomide (3 wells with drug, 3 wells without)” for “lenalidomide”

[6] abbreviates: SEAP absorbance divided by cell count per well.

Consider “Construct 419: pL17d viral vector construct expressing SEAP without a degron; SEQ ID NO: 179 [reference compound]”, for which the “OFF % of ON (SEAP enzymatic activity)” value in data set [1] is given as 105.3 (ns) %. Moreover, the figures for the “% SEAP OFF vs. ON (Len treated/untreated *100) Normalized to cell count” value in data set [2] (setting [6]), in data set [3] (setting [6]) and in data set [4] (setting [6]) were 133%, 169% and 104.3%, respectively. For the same substance, the “% SEAP OFF vs. ON (Len treated/untreated *100)” value in data set [2] (supernatant) was 103%; in data set [3] (supernatant), 127%; in data set [4] (supernatant), 70%; in data set [5], 129%.
